Test system: HSV-1 (SC16)
Assay: Cutaneous HSV-1 infection of the ear pinna in mice immunosuppressed with Cyclosporin A (second experiment)
Assay type: in vivo
Conditions: BALB/c mice immunosupressed with Cyclosporin A (second experiment) compared with immunocompetant mice (first experiment); oral antiviral treatment
Experimental: A cutaneous infection was established by inoculation of the ear pinnae of mice with HSV-1 (SC16) and the effects of oral famciclovir and valaciclovir on the latent virus infection was investigated.
BALB/c female mice (Bantin and Kingman, Kingston, Hull, UK) were purchased at 3 to 4 weeks old and inoculated one week later. Virus suspension (10 ul) containing 5×10^4 p.f.u. were inoculated into the skin of the left ear pinna. Skin thickness was measured daily in individual mice by means of an Engineers' micrometer screw gauge. (ref. Nash et al, 1980, J. Gen. Virol. 48, 351-357). Mice were killed daily and tissues removed for virus assays. Other mice were […]. The trigeminal ganglia and cervical dorsal root ganglia were removed and co-cultivated. Those cultures showing virus replication were recorded as positive.
In a first experiment, groups of immunocompetant mice were untreated (control), antiviral treatment was initiated on days 1, 2, 3, 4 or 5 post-infection (p.i.) and ceased on day 10 p.i.. The compounds were administered ad libitum in the drinking water, at 1 mg/ml (approximately 100 mg/kg/day).
In a second experiment, mice were immunosupressed with Cyclosporin A (CyA) from day-2 to day=10 (day 0 being the day of infection). […]

SMILES	effect on virus replication and disease
CC(=O)OCC(CCn1cnc2cnc(N)nc21)COC(C)=O [famciclovir]	significantly greater effect
CC(C)[C@H](N)C(=O)OCCOCn1cnc2c(=O)[nH]c(N)nc21 [valaciclovir]	significantly greater effect

Reference: US6514980B1, “Nucleoside analogs in combination therapy of herpes simplex infections” (Novartis International Pharmaceutical Ltd., priority 1996, dated 2003)
